US9247747B2, “Fungicidal substituted 1-{2-[2-halo-4-(4-halogen-phenoxy)-phenyl]-2-alkoxy-2-alkynyl/alkenyl-ethyl}-1H-[1,2,4]triazole compounds” (BASF SE, priority 2011, dated 2016)

What was measured:
Septoria tritici [1] = test: M1. Microtest: activity against leaf blotch on wheat caused by Septoria tritici (Septtr), micro titer plate growth; format: cell-based; settings: 405 nm, 7 days after inoculation, relative growth vs active compound-free control (100%)
Protocol: Microtest The active compounds were formulated separately as a stock solution having a concentration of 10000 ppm in dimethyl sulfoxide. M1. Activity Against Leaf Blotch on Wheat Caused by Septoria tritici (Septtr) The stock solutions were mixed according to the ratio, pipetted onto a micro titer plate (MTP) and diluted with water to the stated concentrations. A spore suspension of Septoria tritici in an aqueous biomalt or yeast-bactopeptone-glycerine solution was then added. The plates were placed in a water vapor-saturated chamber at a temperature of 18° C. Using an absorption photometer, the MTPs were measured at 405 nm 7 days after the inoculation. The measured parameters were compared to the growth of the active compound-free control variant (100%) and the fungus-free and active compound-free blank value to determine the relative growth in % of the pathogens in the respective active compounds

Botritis cinerea = test: G4. Preventative fungicidal control of Botritis cinerea on leaves of green pepper (Botrci P1), green house; format: in vivo; settings: 300 pm active substance, % diseased leaf area, untreated control 90%
Protocol: 1) Green House The spray solutions were prepared in several steps: The stock solution were prepared: a mixture of acetone and/or dimethylsulfoxide and the wetting agent/emulsifier Wettol, which is based on ethoxylated alkylphenoles, in a relation (volume) solvent-emulsifier of 99 to 1 was added to 25 mg of the compound to give a total of 5 ml. Water was then added to total volume of 100 ml. This stock solution was diluted with the described solvent-emulsifier-water mixture to the given concentration. G4. Preventative fungicidal control of Botritis cinerea on leaves of green pepper (Botrci P1 Young seedlings of green pepper were grown in pots to the 4 to 5 leaf stage. These plants were sprayed to run-off with an aqueous suspension, containing the concentration of active ingredient or their mixture mentioned in the table below. The next day the plants were inoculated with a aqueous biomalt solution containing the spore suspension of Botritis cinerea. Then the plants were immediately transferred to a humid chamber. After 5 days at 22 to 24° C. and a relative humidity close to 100% the extent of fungal attack on the leaves was visually assessed as % diseased leaf area.

Septoria tritici [2] = test: G1. Preventative control of leaf blotch on wheat caused by Septoria tritici (Septtr P1), green house; format: in vivo; settings: 300 pm active substance, % diseased leaf area, untreated control 90%
Protocol: The spray solutions were prepared in several steps:
The stock solution were prepared: a mixture of acetone and/or dimethylsulfoxide and the wetting agent/emulsifier Wettol, which is based on ethoxylated alkylphenoles, in a relation (volume) solvent-emulsifier of 99 to 1 was added to 25 mg of the compound to give a total of 5 ml. Water was then added to total volume of 100 ml.
This stock solution was diluted with the described solvent-emulsifier-water mixture to the given concentration.
G1. Preventative Control of Leaf Blotch on Wheat Caused by Septoria tritici (Septtr P1)
Leaves of pot-grown wheat seedling were sprayed to run-off with an aqueous suspension of the active compound or their mixture, prepared as described. The plants were allowed to air-dry. The next day the plants were inoculated with an aqueous spore suspension of Septoria tritici. Then the trial plants were immediately transferred to a humid chamber at 18-22° C. and a relative humidity close to 100%. After 4 days the plants were transferred to a chamber with 18-22° C. and a relative humidity close to 70%. After 4 weeks the extent of fungal attack on the leaves was visually assessed as % diseased leaf area.

SMILES | Growth (%) at 0.002 ppm Septtr (Septoria tritici [1]) [%] | Disease (%) at 300 pm Botrci P1 (Botritis cinerea) [%] | Disease (%) at 300 pm Septtr P1 (Septoria tritici [2]) [%]
C#CC(Cn1cncn1)(OC)c1ccc(Oc2ccc(Cl)cc2)cc1Cl (stereo not drawn) [I-1] | 14 |  | 
C=CCOC(Cn1cncn1)c1ccc(Oc2ccc(Cl)cc2)cc1Cl (stereo not drawn) |  | 30 | 30
COC(Cn1cncn1)c1ccc(Oc2ccc(Cl)cc2)cc1Cl (stereo not drawn) | 72 |  | 40
C=CCOC(C=C)(Cn1cncn1)c1ccc(Oc2ccc(Cl)cc2)cc1Cl (stereo not drawn) [I-8] |  |  | 0
C=CC(Cn1cncn1)(OC)c1ccc(Oc2ccc(Cl)cc2)cc1Cl (stereo not drawn) [I-7, 1-[2-[2-chloro-4-(4-chlorophenoxy)phenyl]-2-methoxy-but-3-enyl]-1,2,4-triazole] |  |  | 0
C=CCOC(C#CC)(Cn1cncn1)c1ccc(Oc2ccc(Cl)cc2)cc1Cl (stereo not drawn) [I-12] |  | 0 | 0
